# Measured values taken from paper PMC3086468 (Journal of medicinal chemistry, 2011).
# Read-outs that look alike come from different tables or passages of the source.
# Experiments:
# JTAg cells = assay: TCR signaling in JTAg cells, Western blot; assay type: cell-based, human; settings: for TCR-induced phosphorylation of Lck at Y394: 50 μM compound, C305 stimulation 2 min, anti-pSrc(Y416) blot
# LYP = target: T1, LYP (Homo sapiens, UniProt Q9Y2R2); assay type: biochemical
# T1 sequence (Q9Y2R2 2-309): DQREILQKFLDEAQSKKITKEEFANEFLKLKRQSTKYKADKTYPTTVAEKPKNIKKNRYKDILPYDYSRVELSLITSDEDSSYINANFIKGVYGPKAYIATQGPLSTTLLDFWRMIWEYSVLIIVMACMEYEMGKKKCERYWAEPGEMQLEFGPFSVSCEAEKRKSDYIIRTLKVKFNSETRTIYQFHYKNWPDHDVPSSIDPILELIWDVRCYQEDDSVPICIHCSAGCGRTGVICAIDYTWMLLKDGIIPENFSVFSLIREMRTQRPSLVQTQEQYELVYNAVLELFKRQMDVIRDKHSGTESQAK
# primary human T cells = assay: TCR-induced phosphorylation in primary human T cells; assay type: cell-based; settings: 50 μM, anti-CD3/anti-CD28 1 min
# Pep = assay: Lck Y394 phosphorylation in Ptpn22+/+ and Ptpn22−/− mouse T cells; assay type: cell-based; settings: 50 μM, stimulated with anti-CD3 and anti-CD4
smiles,measurement,setting,value
CCOc1ccc2nc(NC(=O)CSc3nc4sc(C)c(C)c4c(=O)[nH]3)sc2c1 [Compound 1],TCR-induced phosphorylation of Lck at Y394,JTAg cells; JTAg cells,lack of activity
Cc1ccc2[nH]c(=O)c(C(c3nnnn3C3CCCC3)N3CCN(C(c4ccccc4)c4ccccc4)CC3)cc2c1 (centres unmarked) [Compound 4f],relationship between IC50 and substrate concentration,LYP,independent from substrate concentration
same,α,LYP; pH 6,1.93 ± 1.27
Cc1ccc2[nH]c(=O)c(C(c3nnnn3C3CCCC3)N(Cc3ccccc3)Cc3ccc(Cl)cc3)cc2c1 (centres unmarked) [Compound 4g],dual inhibition plot vs compound 13,"LYP; 13.72 μM pY peptide, 25 nM LYP",converging lines
same,α,"LYP; mixed model inhibition fit, pY peptide, pH 6.0, 37 °C",2.96 ± 2.48
same,relationship between IC50 and substrate concentration,"LYP; pY peptide, 25 nM LYP",independent from substrate concentration
O=C(CSc1nc(C2CC2)nc2sc3c(c12)CCCC3)NCc1ccc2c(c1)OCO2 [Compound 6],TCR-induced phosphorylation of Lck at Y394,JTAg cells; JTAg cells,lack of activity
CCc1cccc(C)c1NC(=O)CSc1nc2c(C)ccc(C)c2cc1C#N [Compound 2],phosphorylation of Lck at Y505,JTAg cells; JTAg cells treated with compound (data not shown),unable to detect increased phosphorylation of Lck at Y505
same,TCR-induced phosphorylation of Lck at Y394,JTAg cells; JTAg cells,lack of activity
Cc1ccc2[nH]c(=O)c(C(c3nnnn3C3CCCC3)N3CCCC4(CCCCC4)C3)cc2c1 (centres unmarked) [Compound 4],"TCR-induced phosphorylation of Lck, ZAP70 and LAT",primary human T cells,"equally able to boost TCR-induced phosphorylation of Lck, ZAP70, and linker for activation of T cells (LAT)"
same,ERK1/2 phosphorylation,"JTAg cells; JTAg cells, 50 μM, C305 2 min",increased ERK1/2 phosphorylation
same,TCR-stimulated phosphorylation of ZAP70,"JTAg cells; JTAg cells, 50 μM, C305 2 min",increased TCR-stimulated phosphorylation of ZAP70
same,"Lck phosphorylation at Y394, wild type (Ptpn22+/+) T cells",Pep,increased Lck phosphorylation at Y394
same,"Lck phosphorylation, Ptpn22−/− T cells",Pep,no effect on phosphorylation of Lck
